The source made the active and inactive calls. No cut-off for these calls is given here.
Key:
Assay type in all cases: functional, organism-based
Mus musculus [1] = assay: Ventral prostate involution in CD1 mouse at 30 mg/kg, po after 7 days; parameters: dose 30 mg/kg; details: Prostate gland
Mus musculus [2] = assay: Effect on ventral prostate weight in po dosed CD1 mouse after 7 days; details: Prostate gland
Mus musculus [3] = assay: Effect on dihydro testosterone level in CD1 mouse plasma at 0.1 mg/kg, po after 7 days; parameters: dose 0.1 mg/kg
Mus musculus [4] = assay: Effect on seminal vesicle weight in po dosed CD1 mouse after 7 days
Mus musculus [5] = assay: Effect on testosterone level in CD1 mouse plasma at 0.1 mg/kg, po after 7 days; parameters: dose 0.1 mg/kg
Mus musculus [6] = assay: Effect on testes weight in po dosed CD1 mouse after 7 days; details: Testis

| SMILES | Activity (Mus musculus [1]) | Activity (Mus musculus [2]) | Activity (Mus musculus [3]) | Activity (Mus musculus [4]) | Activity (Mus musculus [5]) | Activity (Mus musculus [6]) |
| --- | --- | --- | --- | --- | --- | --- |
| Oc1ccc([C@@H]2Oc3ccc(O)cc3[C@@H]3CCC[C@@H]32)cc1 | Active | Dose-dependent effect | inactive | inactive | inactive | inactive |
| CC(C)(C)NC(=O)[C@H]1CC[C@H]2[C@@H]3CC[C@H]4NC(=O)C=C[C@]4(C)[C@H]3CC[C@]12C | Active |  |  |  |  |  |

Reference: ChEMBL document CHEMBL1137384, “Benzopyrans are selective estrogen receptor beta agonists with novel activity in models of benign prostatic hyperplasia” (J Med Chem, 2006)
